Test system: keratinocyte transglutamase (TGk) activity in normal human epidermal keratinocytes (NHEK) of R3KO15 type
Assay: keratinocyte transglutamase (TGk) activity after prolonged contact of keratinocytes with the test composition
Assay type: cell-based
Conditions: for Activity/μg: TGk activity relative to the amount of proteins, calcium-free medium; for %/blank: TGk activity, % of blank (−Ca)
Description: The tests performed below use normal human epidermal keratinocytes (NHEK) of R3KO15 type obtained from breast surgery.
The activity of a composition in accordance with the invention is tested with regard to these keratinocytes by assaying the keratinocyte transglutamase (TGk) activity after prolonged contact of the keratinocytes with the test composition, the increase in TGk activity sanctioning a stimulation of keratinocyte differentiation.
The activity is tested in an SFM medium available from Invitrogen under the reference 17005034.
Its composition is as follows: • EGF 0.25 ng/ml, • pituitary extract (PE) 25 μg/ml (Invitrogen 3700015), • gentamycin 25 μg/ml (Sigma G1397) • optionally supplemented with 1.5 mM final calcium chloride (Prolabo 22317297).
Keratinocytes (R3KO15) are precultured in SFM1x medium in 96-well plates (one plate for the test, one for the protein assay and one for the MTT). After incubation for 24 hours at 37° C., the culture medium is removed and replaced with SFM medium, which is not supplemented (calcium-free blank) or supplemented with 1.5 mM final of calcium chloride and not containing (blank) or containing the products, mixed with the test or the references.
After incubation for 48 hours at 37° C. and 5% CO2, the culture medium is removed and the cells are again treated and then incubated for 48 hours at 37° C.
All the experimental conditions are performed in hexaplicate.
The cell lawns are washed and then sonicated, on ice, in Tris/EDTA pH 8.0 buffer.
The membrane TGk enzyme is extracted in the presence of Triton X-100 (incubation with stirring at 4° C.) and the TGk activity is then determined by measuring the covalent addition of tritiated putrescine at 2 μCi/ml final (Amersham TRK 414; 1.04 TBq/mmol, 28 Ci/mmol) to casein (acceptor protein, 2 mg/ml final), in a Tris 0.1 M, CaCl2 4 mM, EDTA 0.4 mM, DTT 5 mM, pH 8.3 buffer, for 2 hours at 37° C.
The casein is precipitated by addition of 20% trichloroacetic acid (TCA) containing 1 mM putrescine and the precipitates are recovered on a Skatron filter and collector (extensive washing with 5% TCA, 0.1 mM putrescine and ethanol) and the dry filters are then counted by liquid scintillation.
The proteins of each sample are assayed using the Dc Protein Assay kit (BioRad 500-0116) and according to the protocol recommended by the manufacturer.
The results obtained are given in Table 1 below, the TGk activity being relative to the amount of proteins—calcium-free medium.

Question: `CC(=O)N(c1cccc(C(F)(F)F)c1)C(C(=O)NCC(=O)O)C(C)C` (centres unmarked) [N-acylamino amide, {2-[acetyl(3-trifluoromethyl-phenyl)amino]-3-methylbutyrylamino}acetic acid] was tested. Which Activity/μg (0.04 mg/ml) did it give?
Answer: The Activity/μg was 114.

Question: And the Activity/μg (0.2 mg/ml)?
Answer: The Activity/μg was 104.

Question: What about the “%/blank” value (0.04 mg/ml) of the same compound?
Answer: The value was 91%.

Question: And the “%/blank” value (0.2 mg/ml)?
Answer: The value was 82%.

Question: What about the “effect on the TGk activity (in words)” value (tested at 0.2 mg/ml and 0.04 mg/ml) of the same compound?
Answer: Its value is “no significant effect”.

Question: Which Activity/μg (1 mM) does the source give for `CC(O)C[C@@H]1OC[C@@H](O)[C@H](O)[C@H]1O` (stereo partly drawn) [C-glycoside, C-β-D-xylopyranoside-2-hydroxypropane] here?
Answer: The Activity/μg was 171.

Question: What about the Activity/μg (3 mM) of the same compound?
Answer: Its Activity/μg is 210.

Question: And the “%/blank” value (1 mM)?
Answer: The value was 136%.

Question: And the “%/blank” value (3 mM)?
Answer: The value was 167%.

Question: Which Activity/μg (10^−7 M) does the source give for `CC1=C(/C=C/C(C)=C/C=C/C(C)=C/C(=O)O)C(C)(C)CCC1` [Retinoic acid, retinoic acid, reference compound] here?
Answer: The Activity/μg was 111.

Question: What about the “%/blank” value (10^−7 M) of the same compound?
Answer: The value was 88%.

From patent US20080014230A1, “Cosmetic compositions combining a C-glycoside derivative and an N-acylamino amide derivative” (L'OREAL, priority 2006, published 2008)
